Data reported in US20160039778A1, “TRPV-1 RECEPTOR ANTAGONIST COMPOUND DERIVED FROM 1,3,4-THIADIAZOLE ALKYLAMIDES AND CHALCONES” (UNIVERSIDAD DE CONCEPCION, priority 2012, published 2016).
Where two headings read alike, the source gives them in different places. One block for each compound: values may come before it.

What was measured:
rat TRPV-1 receptor = target: T1, rat TRPV-1 receptor (Rattus norvegicus, UniProt O35433); assay: Dose response curve, temperature activation of the TRPV-1 receptor in transfected HEK-293T cells; assay type: cell-based; conditions: relative fluorescence at 50° C., HEK-293T cells transfected with rat TRPV-1, two independent experiments, ± standard deviation
T1 construct: expressed in transfected cells; host or cells: HEK-293T
Experimental: The synthesized compounds were evaluated in HEK-293T cell cultures transfected with cDNA from rat TRPV receptors. […] The influx of calcium was measured with a fluorescent probe, Fluo 4-AM, as in the presence of an antagonist the calcium influx is blocked by the inactivation of the TRPV-1 receptor and cellular fluorescence decreases.
The HEK-293T cells were cultured in a DMEM medium supplemented with 5% fetal bovine serum, 50 U/ml penicillin, […] streptomycin and 2 mM L-glutamine. The cultures were kept at 37°, in a 5% CO2 environment, with 80% relative humidity.
The HEK-293T cells were transfected with rat TPRV-1 pcDNA3, 97 μOpti-MEM and 3 μL of Lipofectamine 2000 were added to a reaction tube and to a second tube 1 μg of DNA and one volume of Opti-MEM were added to complete 100 μL. Both tubes were incubated for 10 minutes, after which they were mixed and incubated for another 15 minutes.
After 48 hours of transfection the cells were treated with 200 μL of trypsin, left to incubate for 5 minutes at room temperature, then gently pipetted and transposed to a 15 ml tube. After being centrifuged at a speed of 6,000 rpm for 10 minutes, the cells were re-suspended in 1 ml of Ringer medium, adding 1 μl of Fluo-4AM 1000×, and incubated at 37° C. for half an hour. After being centrifuged and washed with pH 7.34 PBS 1× to remove the excess probe the cell pellet was re-suspended in 1.5 ml of Ringer medium.
Once the rat TRPV-1 receptor had been transfected, Fluo-4 AM charged HEK 293T cells were plated out in 48-well plates at a cellular density of 50,000 cells per well, with a transfection percentage of 40-50%. Subsequently 2 μL/well of each assayed compound were added and the cells left to incubate at room temperature for 5-10 minutes before the execution of the experiment by temperature. The fluorescence measurements were then read on a real time PCR system that allows an increment of 1° C. every 35 seconds from 36° C. to 55° C. for compounds and from 22-56° C. for transfected cells in absence of compounds. Reading of the fluorescence measurement was done using a FAM filter ([…]). […] The values were then normalized, the data being expressed as relative fluorescence, which is the ratio between the fluorescence variation and the base line.
An assay was carried out on temperature activation of the TRPV-1 receptor by incubating the transfected and Fluo-4AM charged HEK-293T cells in the presence of different concentrations of each compound assayed: 1 μM; 0.1 μM; 0.01 μM; 0.003 μM; 0.001μM; 0.0003 μM, 0.0001 μM y 0.00001 μM. The relative fluorescence data obtained at 50° C. was then used to calculate the fluorescence ratio, which is presented as normalized in relation to the relative fluorescence at initial concentration. In this way, the fluorescence ratios obtained through two independent experiments were averaged and expressed with the respective standard deviation.

TRPV1 receptor = conditions: cited from earlier work; for selectivity for the TRPV-1 receptor: literature statement
[1] = literature statement; cited from earlier work
[2] = literature statement; cited from earlier work; remark: listed apart in the source
[3] = literature statement; cited from earlier work; remark: listed apart in the source
[4] = read-out: half maximal inhibitory concentration (IC50), TRPV1 antagonist
[5] = literature value, read-out: half maximal inhibitory concentration (IC50), TRPV1 antagonist
[6] = 1,3,4-thiadiazole alkylamide derivatives

T1 sequence (O35433 whole entry): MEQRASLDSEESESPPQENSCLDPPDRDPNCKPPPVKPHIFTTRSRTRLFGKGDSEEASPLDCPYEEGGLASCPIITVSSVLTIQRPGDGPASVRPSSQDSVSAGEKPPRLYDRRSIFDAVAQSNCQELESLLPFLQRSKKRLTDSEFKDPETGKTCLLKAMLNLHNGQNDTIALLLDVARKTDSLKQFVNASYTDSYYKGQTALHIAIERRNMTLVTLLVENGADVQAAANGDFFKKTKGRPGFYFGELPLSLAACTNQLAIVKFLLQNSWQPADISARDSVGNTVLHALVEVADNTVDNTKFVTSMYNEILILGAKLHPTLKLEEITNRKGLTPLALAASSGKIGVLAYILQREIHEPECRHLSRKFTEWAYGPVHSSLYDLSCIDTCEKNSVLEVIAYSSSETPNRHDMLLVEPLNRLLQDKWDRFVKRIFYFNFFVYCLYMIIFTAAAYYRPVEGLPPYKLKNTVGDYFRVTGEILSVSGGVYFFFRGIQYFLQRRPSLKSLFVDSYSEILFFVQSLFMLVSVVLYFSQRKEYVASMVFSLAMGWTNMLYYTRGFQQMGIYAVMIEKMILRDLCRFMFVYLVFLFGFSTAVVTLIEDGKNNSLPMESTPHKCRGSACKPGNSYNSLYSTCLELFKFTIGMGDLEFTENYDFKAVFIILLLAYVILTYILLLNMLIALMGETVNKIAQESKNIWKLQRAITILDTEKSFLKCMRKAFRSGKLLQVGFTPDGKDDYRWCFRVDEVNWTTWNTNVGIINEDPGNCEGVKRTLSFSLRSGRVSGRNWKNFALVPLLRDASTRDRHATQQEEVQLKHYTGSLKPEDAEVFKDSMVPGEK

IC50 (rat TRPV-1 receptor; chalcone derivatives): 1.02 ± 0.206 nM
Structure (SMILES): O=C(/C=C/c1ccccc1)c1ccc(Br)cc1 [i]

Structure (SMILES): CCCCCCCCC(=O)NCc1cc(OC)c(O)cc1I [6-iodononivamide]
IC50 (TRPV1 receptor; [4]): 126 nM

Structure (SMILES): CCCCCCCCC(=O)NCc1cc(I)c(O)c(OC)c1 [5-iodononivamide]
IC50 (TRPV1 receptor; [4]): 10 nM

Structure (SMILES): Oc1cc2c(cc1O)CN(C(=S)NCCc1ccc(Cl)cc1)CCC2 [capsazepine]
selectivity for the TRPV-1 receptor (TRPV1 receptor): low selectivity | IC50 (TRPV1 receptor; [5]): 56.2 nM | metabolic stability [1]: metabolically unstable

IC50 (rat TRPV-1 receptor; chalcone derivatives): 7.55 ± 1.9 nM
Structure (SMILES): O=C(/C=C/c1ccccc1)/C=C/c1ccccc1 [m, (1E, 4E)-1,5-diphenyl penta-1,4-dien-3-one]

Structure (SMILES): CC(C)(C)c1ccc(NC(=O)N2CCN(c3ncccc3Cl)CC2)cc1 [BCTC, N-(4-tertiarybutylphenyl)-4-(3-cholorphyridin-2-yl)tetrahydropyrazine-1(2H)-carbox-amide]
IC50 (TRPV1 receptor; depending on the type of species (rat, mouse or human) of the TRPV1 receptor, literature value, read-out: half maximal inhibitory concentration (IC50), TRPV1 antagonist): 2 to 6 nM | metabolic stability [1]: low | half-life [2]: short | oral bioavailability [2]: moderate | aqueous solubility [3]: poor

IC50 (rat TRPV-1 receptor; chalcone derivatives): 0.184 ± 0.023 nM
Structure (SMILES): O=C(/C=C/c1ccc(O)cc1)/C=C/c1ccc(O)cc1 [n, (1E, 4E)-1,5-(4-hydroxyphenyl) penta-1,4-dien-3-one]

Structure (SMILES): N.N.N.N.N.N.N.N.N.N.N.N.N.N.[Cl-].[Cl-].[Cl-].[Cl-].[Cl-].[Cl-].[O-2].[O-2].[Ru+3].[Ru+3].[Ru+4] [ruthenium red]
selectivity for the TRPV-1 receptor (TRPV1 receptor): lack selectivity | IC50 (TRPV1 receptor; non-competitive antagonist, blocks the ionic channel, literature value, read-out: antagonistic activity IC50): 170 nM

Structure (SMILES): C=C(C)[C@]12C[C@@H](C)[C@@]34O[C@](Cc5ccccc5)(O[C@@H]1[C@@H]3C=C(COC(=O)Cc1ccc(O)c(OC)c1)C[C@]1(O)C(=O)C(C)=C[C@@H]41)O2 [resiniferatoxin]
agonist potency relative to capsaicin (TRPV1 receptor): 10 times

IC50 (rat TRPV-1 receptor; [6]): 1.09 ± 0.497 nM
Structure (SMILES): CCCCCCCC(=O)Nc1nnc(-c2ccc(O)c(OC)c2)s1 [d, N-[5-(4-hydroxy-3-methoxyfenil)-1,3,4-thiadiazole-2-yl]-octanamide]

IC50 (rat TRPV-1 receptor; [6]): 0.046 ± 0.004 nM
Structure (SMILES): CCCCCCCCC(=O)Nc1nnc(-c2cc(I)c(O)c(OC)c2)s1 [a, N-[5-(4-hydroxy-5-methoxy-3-iodophenyl)-1,3,4-thiadiazole-2-yl]-nonamide]

IC50 (rat TRPV-1 receptor; chalcone derivatives): 0.257 ± 0.016 nM
Structure (SMILES): COc1cc(C=C(Cl)C(=O)c2ccccc2)ccc1O (stereo in doubt) [q, (2E)-chloro-3-(4-hydroxy-3-methoxyphenyl)-1-phenyl prop-2-en-1-one]

IC50 (rat TRPV-1 receptor; [6]): 0.145 ± 0.051 nM
Structure (SMILES): CCCCCCCCC(=O)Nc1nnc(-c2ccc(O)c(OC)c2)s1 [b, N-[5-(4-hydroxy-3-methoxyphenyl)-1,3,4-thiadiazole-2-yl]-nonamide]

IC50 (rat TRPV-1 receptor; [6]): 0.298 ± 0.026 nM
Structure (SMILES): CCCCCC(=O)Nc1nnc(-c2ccc(O)c(OC)c2)s1 [h, N-[5-(4-hydroxy-3-methoxyfenil)-1,3,4-thiadiazole-2-yl]-hexanamide]

Structure (SMILES): COc1ccc(/C=C/C(=O)c2ccc(Br)cc2)cc1 [j, (2E)-1-(4-bromophenyl)-3-(4-methoxyphenyl) prop-2-en-1-one]
IC50 (rat TRPV-1 receptor; chalcone derivatives): 3.89 ± 0.225 nM

IC50 (rat TRPV-1 receptor; [6]): 1.263 ± 0.009 nM
Structure (SMILES): CCCCCCC(=O)Nc1nnc(-c2cc(I)c(O)c(OC)c2)s1 [e, N-[5-(4-hydroxy-5-methoxy-3-iodophenyl)-1,3,4-thiadiazole-2-yl]heptanamide]

Structure (SMILES): CC(C)(C)c1ccc(/C=C/C(=O)Nc2ccc3c(c2)OCCO3)cc1 [(E)-3-(4-t-butylphenyl)-N-(2,3-dihydrobenzo[b][1,4]dioxin-6-yl)acrylamide]
IC50 (TRPV1 receptor; literature value, read-out: antagonistic activity IC50): 79 nM

Structure (SMILES): C=C(C)[C@]12C[C@@H](C)[C@@]34O[C@](Cc5ccccc5)(O[C@@H]1[C@@H]3C=C(COC(=O)Cc1cc(I)c(O)c(OC)c1)C[C@]1(O)C(=O)C(C)=C[C@@H]41)O2 [5-iodoresiniferatoxin]
IC50 (TRPV1 receptor; [5]): 0.4 nM

Structure (SMILES): [La] [lanthanum]
selectivity for the TRPV-1 receptor (TRPV1 receptor): lack selectivity | concentration at which activity is presented (TRPV1 receptor; non-competitive antagonist, blocks the ionic channel, literature value): ≥ 100 µM
